≈ marks a conversion by molar mass, not a printed value.
What was measured:
[1] = Primate study, 3-way crossover, oral administration; assay type: in vivo; conditions: monkeys, oral 20 mg/kg, three dosing occasions
Experimental: A total of 6 animals were used in a 3-way (2+2+2) crossover design where, on each of the three dosing occasions, 2 of the animals were administered Compound I in powder in bottle (PiB) suspension in vehicle for reconstitution (20 mg/kg), 2 of the animals were administered Compound I solid dispersion suspension (20 mg/kg) of Example 1, while another 2 animals were administered Compound I in a tablet form (20 mg/kg) of Example 2. The vehicle for reconstitution comprised Propylene Glycol USP 80.0% w/w; Ethanol USP 10.0% w/w; Vit E TPGS USP 10.0% w/w for a total of 100.0% w/w.
Dosing for this study was conducted in fasted state. […]
The animals were observed closely during the first 12 hrs after each dosing and once daily on non-dosing days. Body weights were measured and recorded prior to dosing and blood samples for pharmacokinetic profiling were taken at the pre-defined time points for all animals. […] All plasma samples from this study were analyzed by this method and plasma concentration of Compound I were expressed in terms of ng/mL.
The error bars refer to standard deviation. […] AUClast refers to the area under the concentration-time curve from dosing (time 0) to the time of the last measured concentration (24 hours).

[2] = gastric to intestinal (G-IB) transfer microcentrifuge dissolution test; assay type: physicochemical
Experimental: The solid dispersions described in Example 1 were evaluated in two non-sink dissolution tests to evaluate various aspects of the formulations and how they might be differentiated. The two dissolution tests that were evaluated include a gastric to intestinal (G-IB) transfer microcentrifuge dissolution test and an ultracentrifuge free-drug test.
The gastric-to-intestinal buffer (G-IB) transfer dissolution test is used to measure the supersaturation of drug above the solubility of bulk drug when dosed as a powder, first into media at a lower pH value to imitate a fasted stomach. After 30 minutes of exposure to the gastric media, the samples are transferred into the higher pH media as an imitation of the intestine. The drug concentrations measured in this test are a composite of free drug, drug in micelles, and drug suspended in solution as drug/polymer colloids.
The G-IB dissolution test is performed the same way, but with a 30 minute gastric exposure prior to transferring into the intestinal media. The intestinal media for the G-IB dissolution test is doubly concentrated in terms of buffering and bile salts, so that after the gastric transfer step, the final pH is 6.5 and SIF concentration is 0.5 wt %.
The microcentrifuge dissolution test separates the precipitate (undissolved drug) and total solubilized drug. Total solubilized drug consists of three solubilized species: freely solubilized drug, drug associated with bile salt micelles, and drug associated with polymer (drug-polymer colloids). These three species have different activities in vivo and differentiate formulations. The freely solubilized drug is the smallest species and is the most readily available for absorption. Freely solubilized drug can cross the unstirred mucous boundary layer and be absorbed into the blood through the epithelium. The drug associated with micelles diffuse across the unstirred mucous boundary layer and resupply free drug as it is absorbed. Finally, the drug-polymer colloids also resupply free drug as it is absorbed and can have a contribution to effective diffusion rate. These colloids can be important depending on the rate-limiting step for absorption.
A solid dispersion comprising Compound I: HPMCAS in a ratio of 1:2 (“33.3% HPMCAS”) was prepared from 2.7 grams of the free base hydrate crystalline form B of Compound I and 5.3 grams of HPMCAS (Shin Etsu, L grade, F particle size (≤10 microns particle size)), using a similar procedure of Example 1. Briefly, 2 mg test compound/mL in 0.9 mL gastric buffer was transferred to a final dose of 1 mg/mL in 1.8 mL of 0.5% SIF in PBS at pH 6.5 at room temperature to provide 1.8 mL total volume test solution. The samples were centrifuged at 15,800 g for 1 minute. At specified timepoint, 50 μL aliquot samples were diluted 6× with 50/50 acetonitrile/water and assayed by HPLC.
The solid dispersion was evaluated together with the 25% Compound I: HPMCAS solid dispersion (“25% HPMCAS”) and 95.3% Compound I (freebase hydrate, “Crystalline API”), using the G-IB dissolution test described in Example 3-1.

[3] = ultracentrifuge free-drug test (drug speciation); assay type: physicochemical
Experimental: The ultracentrifuge free-drug analysis is used to determine the species of dissolved drug that are present for each formulation. This test is performed at several timepoints, i.e., 0, 30, 60 and 90 minutes, during the microcentrifuge test, and it consists of a centrifugation step at 300,000 g that removes any colloidal species that are present, leaving only the free drug and drug in micelle species. In combination with the microcentrifuge data, this allows for determination of free drug and colloidal content at the timepoint where both are tested.

[4] = intestinal buffer, 0.5% SIF in PBS pH 6.5, 1 mg/mL

## COc1cc(F)cc([C@@H](CO)NC(=O)[C@@H](C)N2Cc3ccc(-c4nc(NC5CCOCC5)ncc4Cl)cc3C2=O)c1 [Compound I, (2R)-2-(6-{5-chloro-2-[(tetrahydro-2H-pyran-4-yl)amino]pyrimidin-4-yl}-1-oxo-2,3-dihydro-1H-isoindol-2-yl)-N-[(S)-1-(3-fluoro-5-methoxyphenyl)-2-hydroxyethyl]propanamide]
[1]
  clinical signs as a result of treatment: no clinical signs

## COc1cc(F)cc([C@@H](CO)NC(=O)[C@@H](C)N2Cc3ccc(-c4nc(NC5CCOCC5)ncc4Cl)cc3C2=O)c1 [Crystalline API]
[2]; gastric buffer, 2 mg/mL, room temperature
  CmaxGB: 20000 ng/mL
[2]; intestinal buffer, 0.5% SIF in PBS pH 6.5
  C1200: 21 µg/mL
[2]; [4]
  AUC4-90 IB: 1,610 min*μg/mL
  C90 IB: 21 µg/mL
  Cmax90 IB: 21000 ng/mL
[3]; ultracentrifuge
  Ultra1200: 19 µg/mL
[3]; ultracentrifuge, 90 minutes
  Ultra90: 21 µg/mL

## COc1cc(F)cc([C@@H](CO)NC(=O)[C@@H](C)N2Cc3ccc(-c4nc(NC5CCOCC5)ncc4Cl)cc3C2=O)c1 [amorphous Compound I]
[3]; pH 6.5, fassgf or other biorelevant, FIG. 2 speciation data from the dissolution test
  solubility: ~15 µg/mL (≈ 25.7 µM)

Source: patent US20240415835A1, “COMPOSITIONS COMPRISING AN ERK INHIBITOR” (Otsuka Pharmaceutical Co., Ltd., priority 2021, published 2024)
